Results taken from patent US7999011B2, “Method for cardioprotection and neuroprotection by intravenous administration of halogenated volatile anesthetics” (Baxter International Inc., priority 2002, dated 2011).
Entries after “also recorded” stand apart in the source; their conditions may differ.

What was measured:
[1] = test system: myocardial ischemia-reperfusion injury; assay: Myocardial infarct size following ischemia and reperfusion (30 min LAD occlusion, 3 h reperfusion); type: in vivo, rabbit; settings: for infarct size plotted as a function of area at risk, versus control regression line: FIGS. 4A, 4B, 5A, 5B; for cardioprotection (protection against myocardial ischemia-reperfusion injury): i.v. emulsion prior to coronary artery occlusion; for IF/AAR: infarct size as percentage of area at risk, i.v. emulsion 10 ml/h 30 min, stopped 30 min before occlusion; for IF WT: infarct weight
Method: These experiments were designed to characterize the effects of different HVAs (enflurane, isoflurane, sevoflurane, and desflurane) administered intravenously in an emulsion on myocardial infarct size following ischemia and reperfusion in rabbits.
(§1) Male New Zealand white rabbits weighing between 2.5 and 3.0 kg were anesthetized with intravenous sodium pentobarbital (30 mg/kg). Additional doses of pentobarbital were titrated as required to assure that pedal and palpebral reflexes were absent throughout the experiment. A tracheotomy was performed through a ventral midline incision, and the trachea was cannulated. The rabbits were ventilated with positive pressure using an air-oxygen mixture (FiO2=0.33). Arterial blood gas tensions and acid-base status were maintained within a normal physiological range (pH 7.35-7.45, PaCO2 25-40 mmHg, and PaO2 90-150 mmHg) by adjusting the respiratory rate or tidal volume. Body temperature was maintained with a heating blanket. Heparin-filled catheters were inserted into the right carotid artery and the left jugular vein for measurement of arterial blood pressure and fluid or drug administration, respectively. Maintenance fluids consisted of 0.9% saline (15 ml/kg/h) that were continued for the duration of the experiment.
(§2) A left thoracotomy was performed at the fourth intercostal space, and the heart was suspended in a pericardial cradle. A prominent branch of the left anterior descending coronary artery (LAD) was selected, and a silk ligature was placed around this artery approximately halfway between the base and apex for the production of coronary artery occlusion and reperfusion in myocardial infarct size experiments. Each rabbit was anticoagulated with 500 U of heparin immediately before LAD occlusion. Coronary artery occlusion was verified by the presence of epicardial cyanosis and regional dyskinesia in the ischemic zone, and reperfusion was confirmed by observing an epicardial hyperemic response. Hemodynamics were continuously recorded on a polygraph throughout experimentation. After the surgical preparation, 30 min of stabilization were allowed.
The experimental design for the experiments is illustrated in FIG. 1. Rabbits were randomly assigned to one of six experimental groups: a control group (0.9% saline infusion), a vehicle group (drug lipid vehicle), or one of four anesthetic groups (emulsified desflurane, isoflurane, enflurane, or sevoflurane). The vials of anesthetics were stored at 4° C. as prepared in Example 1. After opening, the vial was left in a water bath at 37° C. for 2 h. Anesthetics were directly poured into the syringe without using negative pressure suction.
(§3) Baseline measurements of systemic hemodynamics, arterial blood gas tensions, and blood concentrations of anesthetic agent were performed 30 min after instrumentation was completed. Rabbits received 0.9% saline, drug lipid vehicle (10 ml/h), or intravenous volatile anesthetic (10 ml/h) for 30 min. Infusions were discontinued 30 min prior to coronary occlusion (memory period). Blood concentrations of anesthetic agents were performed at baseline, at the end of anesthetic infusion, and at the end of the memory period just before coronary occlusion). HVA concentrations in blood were determined by gas chromatographic (GC) analysis. All rabbits underwent a 30 min LAD occlusion followed by 3 h reperfusion.
At the end of each experiment, the LAD was reoccluded and 3 ml of Patent blue dye was injected intravenously. The left ventricular area at risk for infarction was separated from surrounding normal areas (stained blue), and the two regions were incubated at 37° C. for 20 to 30 min in 1% 2,3,5-triphenyltetrazolium chloride in 0.1 M phosphate buffer adjusted to pH 7.4. After overnight storage in 10% formaldehyde, infarcted and noninfarcted myocardium within the area at risk were carefully separated and weighed. Infarct size was expressed as a percentage of the area at risk. […]

End-tidal gas analysis = type: in vivo, rabbit; settings: for EtHalogenated: end-tidal
Method: as §3
(§4) Statistical analysis of data within and between groups was performed with analysis of variance (ANOVA) for repeated measures followed by Student-Newman-Keuls test. Changes between groups were considered statistically significant when the p value was less than 0.05. All data are expressed as mean±SEM.

[2] = Literature MAC values in rabbits and 1 MAC-equivalent blood concentration; type: in vivo; settings: 37° C., rabbit; x=λn
Method: “Minimum alveolar concentration (MAC)”, as is known in the art, is the alveolar concentration of an anesthetic, administered by inhalation at a pressure of 1 atmosphere, that prevents movement in 50% of patients in response to a painful stimuli. The MAC is age-dependent; it may be affected by a patient's medical condition; and it may also be affected by other pharmaceutical agents that are administered to the patient. In the context of intravenous administration of HVAs, the term “MAC” or “MAC-equivalent” is intended to mean an intravenous dose which produces the same blood plasma concentration of an anesthetic agent as that attained by inhalational administration of a gaseous concentration of anesthetic which prevents such movement in 50% of patients.
Blood concentrations as measured by GC were converted to their MAC-equivalent values by calculations described below. Initially “n”, or the number of moles of HVA in 1 L of alveolar gas during exposure to 1.0 MAC of the HVA was calculated.
The number of moles of the HVA in 1 L at 37° C. at 1 MAC in rabbits was then used to determine the concentration of the HVA present in blood by using known blood/gas partition values (also known as λ). […] The value for “x” (or the equivalent blood concentration of the HVA at 1 MAC at 37° C. in rabbit) is then determined by the equation: x=λn

[3] = Systemic hemodynamics during infarct experiment; type: in vivo, rabbit
Method: as §1, with “Arterial blood gas tensions and acid-base status were maintained within a normal physiological range (pH 7.35-7.45, PaCO2 25-40 mmHg, and PaO2 90-150 mmHg) by adjusting the respiratory rate or tidal volume.” left out
as §2, §3, §4

[4] = i.v. emulsion 10 ml/h for 30 min, Baseline

## FC(F)OC(F)(F)C(F)Cl (centres unmarked) [ENF, enflurane]
[1]
  infarct size plotted as a function of area at risk, versus control regression line: infarcts were smaller than in the control group
  IF/AAR: 20.0 ± 2.8 %
  IF WT: 0.21 ± 0.02 g
[1]; listed as Enflurane
  cardioprotection (protection against myocardial ischemia-reperfusion injury): provided protection against myocardial ischemia-reperfusion injury
[1]; listed as enflurane
  cardioprotection (protection against myocardial ischemia-reperfusion injury): adequate protection against myocardial ischemia-reperfusion injury; also recorded: significant reduction in the myocardial infarct size
End-tidal gas analysis; Baseline
  EtCO2: 36 ± 2 mmHg
  EtHalogenated: 0%
End-tidal gas analysis; Infusion
  EtCO2: 37 ± 2 mmHg
  EtHalogenated: 0.27 ± 0.02%
End-tidal gas analysis; Ischemia 30 min
  EtCO2: 33 ± 3 mmHg
  EtHalogenated: 0.00 ± 0.00%
End-tidal gas analysis; Memory
  EtCO2: 34 ± 2 mmHg
  EtHalogenated: 0.02 ± 0.01%
End-tidal gas analysis; Reperfusion 1 h
  EtCO2: 33 ± 3 mmHg
  EtHalogenated: 0.00 ± 0.00%
End-tidal gas analysis; Reperfusion 2 h
  EtCO2: 33 ± 3 mmHg
  EtHalogenated: 0.00 ± 0.00%
End-tidal gas analysis; Reperfusion 3 h
  EtCO2: 35 ± 3 mmHg
  EtHalogenated: 0.00 ± 0.00%
[2]
  1 MAC-Equivalent Blood Concentration at 1 MAC ("x"): 1.995 mM
[3]; Baseline
  MAP: 78 ± 4 mmHg
  RPP: 22 ± 1.9 bpm × mmHg × 10^3
[3]; Infusion
  HR: 240 ± 11 bpm
  MAP: 68 ± 3 mmHg
  RPP: 18.9 ± 1.5 bpm × mmHg × 10^3
[3]; Ischemia 30 min
  HR: 213 ± 9 bpm
  MAP: 59 ± 6 mmHg
  RPP: 14.5 ± 1.7 bpm × mmHg × 10^3
[3]; Memory
  HR: 231 ± 11 bpm
  MAP: 70 ± 3 mmHg
  RPP: 18.9 ± 1.4 bpm × mmHg × 10^3
[3]; Reperfusion 1 h
  HR: 216 ± 7 bpm
  MAP: 65 ± 6 mmHg
  RPP: 15.8 ± 1.5 bpm × mmHg × 10^3
[3]; Reperfusion 2 h
  HR: 214 ± 10 bpm
  MAP: 68 ± 7 mmHg
  RPP: 16.5 ± 1.6 bpm × mmHg × 10^3
[3]; Reperfusion 3 h
  HR: 210 ± 7 bpm
  MAP: 75 ± 5 mmHg
  RPP: 17.6 ± 1.3 bpm × mmHg × 10^3
[3]; [4]
  HR: 248 ± 10 bpm

## FCOC(C(F)(F)F)C(F)(F)F [SEVO, sevoflurane]
[1]
  infarct size plotted as a function of area at risk, versus control regression line: infarcts were smaller than in the control group
  cardioprotection (protection against myocardial ischemia-reperfusion injury): provided protection against myocardial ischemia-reperfusion injury; also recorded: adequate protection against myocardial ischemia-reperfusion injury; also recorded: significant reduction in the myocardial infarct size
  IF/AAR: 20.5 ± 2.3 %
  IF WT: 0.19 ± 0.04 g
End-tidal gas analysis; Baseline
  EtCO2: 35 ± 1 mmHg
  EtHalogenated: 0%
End-tidal gas analysis; Infusion
  EtCO2: 36 ± 1 mmHg
  EtHalogenated: 0.34 ± 0.02%
End-tidal gas analysis; Ischemia 30 min
  EtCO2: 35 ± 1 mmHg
  EtHalogenated: 0.04 ± 0.01%
End-tidal gas analysis; Memory
  EtCO2: 36 ± 1 mmHg
  EtHalogenated: 0.07 ± 0.01%
End-tidal gas analysis; Reperfusion 1 h
  EtCO2: 34 ± 1 mmHg
  EtHalogenated: 0.03 ± 0.01%
End-tidal gas analysis; Reperfusion 2 h
  EtCO2: 33 ± 1 mmHg
  EtHalogenated: 0.04 ± 0.01%
End-tidal gas analysis; Reperfusion 3 h
  EtCO2: 34 ± 1 mmHg
  EtHalogenated: 0.05 ± 0.01%
[2]
  1 MAC-Equivalent Blood Concentration at 1 MAC ("x"): 0.94 mM
[3]; Baseline
  MAP: increased
  RPP: 22.9 ± 1.3 bpm × mmHg × 10^3
[3]; Baseline, listed as SEV
  MAP: 92 ± 4 mmHg
[3]; Infusion
  HR: 235 ± 9 bpm
  MAP: increased
  RPP: 23.7 ± 1.7 bpm × mmHg × 10^3
[3]; Infusion, listed as SEV
  MAP: 91 ± 4 mmHg
[3]; Ischemia 30 min
  HR: 214 ± 8 bpm
  MAP: 64 ± 5 mmHg
  RPP: 15.7 ± 1.6 bpm × mmHg × 10^3
[3]; Memory
  HR: 227 ± 11 bpm
  MAP: 87 ± 4 mmHg
  RPP: 22.1 ± 1.8 bpm × mmHg × 10^3
[3]; Reperfusion 1 h
  HR: 206 ± 9 bpm
  MAP: 65 ± 3 mmHg
  RPP: 15.2 ± 1.3 bpm × mmHg × 10^3
[3]; Reperfusion 2 h
  HR: 193 ± 10 bpm
  MAP: 65 ± 3 mmHg
  RPP: 14 ± 1.2 bpm × mmHg × 10^3
[3]; Reperfusion 3 h
  HR: 188 ± 9 bpm
  MAP: 65 ± 2 mmHg
  RPP: 13.8 ± 0.8 bpm × mmHg × 10^3
[3]; [4]
  HR: 227 ± 7 bpm
